Experimental findings from ChEMBL document CHEMBL1201862, “PubChem BioAssay data set” (2004) are described below.

Test systems include SN12C; SNB-19; SK-MEL-5; OVCAR-8; IGROV-1; M14; PC-3; SK-MEL-2; SW-620; MDA-N; Hs-578T; HCC 2998; HT-29; MOLT-4; NCI/ADR-RES; BT-549; U-251; RXF 393.
Holding throughout (assay): NCI-60 cell line screen, 48 h

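96-well plates; 48 h exposure; 5 concentrations. Endpoints by linear interpolation between flanking doses. Not reached: highest tested concentration assigned. GI50 marks 50% less growth.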 Active and inactive are the calls of the source. No stated cut-off is given here; in the data, active = GI50 up to about 1.1 µM and inactive = higher.

As to `OCCSCC(O)Cn1cnc2c(O)nc(Nc3ccccc3)nc21` (stereo not given), the GI50 in the experiment on SN12C, in the experiment on SNB-19, in the experiment with SK-MEL-5, in the experiment on OVCAR-8, with IGROV-1 and with M14 was > 100 µM (inactive) each time. Also, the GI50 in the experiment with PC-3, with SK-MEL-2, in the experiment with SW-620, in the experiment on MDA-N, in the experiment on Hs-578T and in the experiment on HCC 2998 was > 100 µM (inactive) throughout. The GI50 in the experiment on HT-29, in the experiment on MOLT-4, with NCI/ADR-RES, in the experiment on BT-549 and in the experiment with U-251 was > 100 µM (inactive) in each case.

Consider `CCNc1cc2c(cc1O)CC[C@@H]1[C@@H]2CC[C@]2(C)[C@@H](O)CC[C@@H]12`, for which the GI50 was 3.53 µM (inactive) in the experiment on RXF 393; 15.3 µM (inactive) in the experiment with SN12C; 0.82 µM (active) with SNB-19; 0.394 µM (active) in the experiment on SK-MEL-5; 11.7 µM (inactive) in the experiment on OVCAR-8; 15.5 µM (inactive) in the experiment with IGROV-1. Further, the GI50 is 1.78 µM (inactive) with M14; 9.91 µM (inactive) in the experiment with PC-3; 2.82 µM (inactive) in the experiment with SW-620; 0.232 µM (active) in the experiment with MDA-N; 3.62 µM (inactive) with Hs-578T; 1.02 µM (active) in the experiment on HCC 2998. The GI50 with HT-29 is 15.8 µM (inactive); in the experiment with MOLT-4, 3.13 µM (inactive); with NCI/ADR-RES, 1.04 µM (active); with BT-549, 15.6 µM (inactive); in the experiment on U-251, 1.61 µM (inactive).

Regarding `Cc1cc(Oc2cnc(=O)[nH]c2)cs1`, the GI50 in the experiment with SN12C, with SNB-19, in the experiment with SK-MEL-5, with OVCAR-8, in the experiment on IGROV-1 and in the experiment on M14 was > 100 µM (inactive) throughout. Besides, the GI50 in the experiment on PC-3, with SK-MEL-2, with SW-620, with MDA-N, in the experiment with Hs-578T and in the experiment with HCC 2998 was > 100 µM (inactive) in each case. The GI50 in the experiment with HT-29, in the experiment with MOLT-4, in the experiment with NCI/ADR-RES, with BT-549 and with U-251 was > 100 µM (inactive) each time.

Consider `CCOC(=O)c1c(CN2CCOCC2)n(Cc2ccccc2)c2c1cc(O)c1nc(C)c(C)nc12`, for which the GI50 in the experiment on SN12C was > 100 µM (inactive); with SNB-19, 38.2 µM (inactive); in the experiment with SK-MEL-5 it was 22.6 µM (inactive); in the experiment on OVCAR-8, 15.5 µM (inactive); with M14, > 100 µM (inactive); in the experiment with PC-3 it was 17.5 µM (inactive). Moreover, the GI50 was 20 µM (inactive) with SK-MEL-2; > 100 µM (inactive) with SW-620; 72.8 µM (inactive) with MDA-N; 36.1 µM (inactive) with Hs-578T; > 100 µM (inactive) in the experiment with HCC 2998; > 100 µM (inactive) in the experiment on HT-29. In addition, the GI50 in the experiment with MOLT-4 is 71 µM (inactive); in the experiment on NCI/ADR-RES, 35.5 µM (inactive); in the experiment on BT-549, 11.5 µM (inactive); in the experiment with U-251, 27.4 µM (inactive).

For the compound `CCOC(=O)C(SCCO)C(C(=O)OCC)n1ccc(N)nc1=O` (stereo not given), the GI50 in the experiment with SN12C, in the experiment with SNB-19, in the experiment with SK-MEL-5, with OVCAR-8, in the experiment with IGROV-1 and in the experiment with M14 was > 100 µM (inactive) throughout. Also, the GI50 with PC-3, with SK-MEL-2, with SW-620, in the experiment with MDA-N, with Hs-578T and in the experiment on HCC 2998 was > 100 µM (inactive) each time. The GI50 in the experiment on HT-29, with MOLT-4, in the experiment with NCI/ADR-RES, with BT-549 and in the experiment with U-251 was > 100 µM (inactive) each time.

For the compound `CN(C)C(=S)C(Cl)(c1ccccc1)c1ccccc1`, the GI50 in the experiment with SN12C was 43.7 µM (inactive); in the experiment with SNB-19, > 100 µM (inactive); with SK-MEL-5, 36.4 µM (inactive); in the experiment on OVCAR-8, 73.8 µM (inactive); in the experiment on IGROV-1 it was > 100 µM (inactive); with M14, > 100 µM (inactive). Also, the GI50 in the experiment with PC-3 is 35.6 µM (inactive); in the experiment with SK-MEL-2 it was 27.4 µM (inactive); in the experiment on SW-620 it was 34 µM (inactive); with MDA-N, 47.6 µM (inactive); with Hs-578T, > 100 µM (inactive); in the experiment with HCC 2998, > 100 µM (inactive). For the same compound, the GI50 in the experiment with HT-29 is 22.6 µM (inactive); with MOLT-4, 11.8 µM (inactive); with NCI/ADR-RES it was 89.5 µM (inactive); in the experiment with BT-549, > 100 µM (inactive); with U-251, 36.1 µM (inactive).

As for `CCCCc1ccc(-n2sc3ncc([N+](=O)[O-])cc3c2=O)cc1`, the GI50 in the experiment with SN12C is 17.3 µM (inactive); in the experiment on SNB-19, 13.7 µM (inactive); in the experiment with SK-MEL-5, 14.6 µM (inactive); with OVCAR-8, 22.9 µM (inactive); in the experiment on IGROV-1, 13.8 µM (inactive); with M14, 17.4 µM (inactive). The GI50 in the experiment with PC-3 is 5.55 µM (inactive); with SK-MEL-2 it was 1.57 µM (inactive); in the experiment with SW-620 it was 16.8 µM (inactive); in the experiment on MDA-N, 14.8 µM (inactive); in the experiment on Hs-578T it was 4.93 µM (inactive); in the experiment with HCC 2998, 12.5 µM (inactive). The GI50 was 13.8 µM (inactive) in the experiment with HT-29; 20.3 µM (inactive) in the experiment with MOLT-4; 11.5 µM (inactive) in the experiment with NCI/ADR-RES; 17.2 µM (inactive) in the experiment on BT-549; 12.6 µM (inactive) in the experiment with U-251.

Take `COc1ccc2c(C)c(Oc3c(Cl)c(Cl)c(O)c(C#N)c3C#N)oc2c1`: the GI50 with SN12C, with SNB-19, in the experiment on SK-MEL-5, in the experiment on OVCAR-8, in the experiment on IGROV-1 and in the experiment with M14 was > 100 µM (inactive) in each case. Besides, the GI50 in the experiment with PC-3, in the experiment with SK-MEL-2, in the experiment on SW-620, in the experiment on MDA-N, with Hs-578T and in the experiment on HCC 2998 was > 100 µM (inactive) each time. Further, the GI50 with HT-29, in the experiment on MOLT-4, in the experiment with NCI/ADR-RES, in the experiment on BT-549 and in the experiment with U-251 was > 100 µM (inactive) throughout.

Consider `N#Cc1nc(-c2ccco2)oc1N`, for which the GI50 in the experiment with RXF 393, in the experiment with SNB-19, in the experiment on SK-MEL-5, with OVCAR-8, in the experiment on IGROV-1 and in the experiment on M14 was > 10 µM (inactive) in each case. Further, the GI50 in the experiment on PC-3, with SW-620, with MDA-N, with Hs-578T, in the experiment with HCC 2998 and in the experiment on HT-29 was > 10 µM (inactive) throughout. Besides, the GI50 in the experiment on MOLT-4, in the experiment on NCI/ADR-RES and in the experiment on BT-549 was > 10 µM (inactive) in each case.

In the case of `CCCCCCCC(=O)NS(=O)(=O)c1ccccc1`, the GI50 was > 100 µM (inactive) with SNB-19; > 100 µM (inactive) in the experiment on SK-MEL-5; > 100 µM (inactive) in the experiment on OVCAR-8; > 100 µM (inactive) in the experiment with IGROV-1; 77.1 µM (inactive) in the experiment on M14; > 100 µM (inactive) in the experiment on PC-3. Further, the GI50 in the experiment on SK-MEL-2, in the experiment on SW-620, in the experiment with MDA-N, in the experiment on Hs-578T, in the experiment on HCC 2998 and with HT-29 was > 100 µM (inactive) each time. Moreover, the GI50 with MOLT-4, in the experiment on NCI/ADR-RES, in the experiment with BT-549 and in the experiment with U-251 was > 100 µM (inactive) each time.

Consider `Oc1cccc2ccc(Br)nc12`, for which the GI50 in the experiment with RXF 393, in the experiment on SN12C, with SNB-19, in the experiment with SK-MEL-5, in the experiment on OVCAR-8 and with IGROV-1 was > 100 µM (inactive) in each case. Further, the GI50 is > 100 µM (inactive) in the experiment with M14; 86.5 µM (inactive) in the experiment with PC-3; > 100 µM (inactive) with SW-620; > 100 µM (inactive) in the experiment with MDA-N; > 100 µM (inactive) in the experiment on Hs-578T; 63 µM (inactive) in the experiment on HCC 2998. Besides, the GI50 with HT-29, with MOLT-4, in the experiment with NCI/ADR-RES, with BT-549 and with U-251 was > 100 µM (inactive) throughout.

As to `CC(C)[C@@H]1ON1C(C)c1ccccc1` (stereo not given in full), the GI50 in the experiment on RXF 393 was > 100 µM (inactive); in the experiment on SN12C, > 100 µM (inactive); with SNB-19, > 100 µM (inactive); in the experiment on SK-MEL-5, > 100 µM (inactive); in the experiment with OVCAR-8 it was > 100 µM (inactive); with IGROV-1, 70.6 µM (inactive). Further, the GI50 with M14, in the experiment with PC-3, with SW-620, in the experiment with MDA-N, with Hs-578T and in the experiment with HCC 2998 was > 100 µM (inactive) each time. In addition, the GI50 with HT-29, in the experiment with MOLT-4, with NCI/ADR-RES, with BT-549 and in the experiment on U-251 was > 100 µM (inactive) in each case.
